In PMC4890880 (ACS infectious diseases, 2016):
Where two headings read alike, the source gives them in different places.

What was measured:
[1] = test system: HepG2-A16-CD81EGFP cells; assay: cells; conditions: Homo sapiens; for IC50: HepG2, read-out: Tox IC50; for inhibition at 50 µM: HepG2, read-out: Tox max inhibition (%) @ 50 uM; for inhibition at 10 µM: HepG2, read-out: Tox max inhibition (%) @ 10 uM
[2] = target: QuantiLum Recombinant Luciferase (Photinus pyralis, UniProt P08659); assay: Bioluminescence quantification of compound luciferase inhibition; conditions: for Emax: read-out: LucInhib max inhibition
Chain of QuantiLum Recombinant Luciferase (P08659 whole entry): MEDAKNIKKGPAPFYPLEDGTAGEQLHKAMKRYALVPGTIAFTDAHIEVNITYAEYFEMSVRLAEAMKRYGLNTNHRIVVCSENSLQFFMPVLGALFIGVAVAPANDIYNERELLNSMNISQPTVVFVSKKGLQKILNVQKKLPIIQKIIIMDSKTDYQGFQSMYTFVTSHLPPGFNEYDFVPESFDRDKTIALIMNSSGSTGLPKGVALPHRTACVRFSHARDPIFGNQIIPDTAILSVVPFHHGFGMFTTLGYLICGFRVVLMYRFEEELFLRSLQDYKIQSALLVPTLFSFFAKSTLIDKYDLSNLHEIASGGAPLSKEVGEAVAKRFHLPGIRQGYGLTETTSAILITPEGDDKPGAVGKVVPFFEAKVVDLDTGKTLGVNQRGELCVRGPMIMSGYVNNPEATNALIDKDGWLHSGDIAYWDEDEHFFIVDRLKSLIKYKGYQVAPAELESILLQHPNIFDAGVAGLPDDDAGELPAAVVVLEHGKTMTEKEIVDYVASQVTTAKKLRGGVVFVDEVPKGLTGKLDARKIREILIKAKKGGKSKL

[3] = test system: Plasmodium berghei (Pb-Luc) exoerythrocytic-stage parasites; assay: microbe, parasite or virus in culture; conditions: for inhibition at 10 µM: read-out: PbLuc max inhibition (%) @ 10 uM
[4] = HepG2, read-out: HepG2 Tox% @ 50 uM rep1
[5] = HepG2, read-out: HepG2 Tox% @ 50 uM rep2
[6] = read-out: Inhibition% @ 50 uM rep1
[7] = read-out: Inhibition% @ 50 uM rep2
[8] = read-out: PbLuc IC50, dose response, 1/3 dilutions, max conc. 10 or 50 uM, unit inferred
[9] = read-out: PbLuc max inhibition (%) @ 50 uM
[10] = read-out: PbLuc IC50, dose response, unit inferred

SMILES | cytotoxicity at 50 µM [1, 4] [%] | cytotoxicity at 50 µM [1, 5] [%] | IC50 [1] [µM] | inhibition at 50 µM [1] [%] | IC50 [2] [µM] | Emax [2] [%] | inhibition at 50 µM [3, 6] [%] | inhibition at 50 µM [3, 7] [%] | IC50 [3, 8] [µM] | inhibition at 50 µM [3, 9] [%] | IC50 [3, 10] [µM] | inhibition at 10 µM [1] [%] | inhibition at 10 µM [3] [%]
Cc1ccc(N2C(=O)C3C(C2=O)C2(c4ccccc4)C(=O)C3(c3ccccc3)C(c3ccccc3)=C2c2ccccc2)cc1 (stereo not drawn) [MMV666062] | 1.06 | 8.55 | > 50 | 9 | > 50 | 23 | 91 | 100 | 6.54 | 102 |  |  | 
CCOC(=O)c1cnc2c(C)cccc2c1Nc1ccc(C(C)=O)cc1 [MMV006250] | 18 |  | > 50 | 0 | > 50 | 27 | 88 | 91 |  | 84 | 28.2 |  | 
O=[N+]([O-])c1ccc(C=NNc2nc3ccccc3[nH]2)cc1 [MMV666607] | 14 | 20 | > 10 |  | > 20 | 30 | -47 | -99 |  |  | > 10 | 5 | -2.2
CCCCCC(=O)N1c2ccccc2N=C2CC(c3ccc(OC)c(OC)c3)CC(O)=C2C1c1ccc(C(F)(F)F)cc1 (stereo not drawn) [MMV085583] | 14 | 28 | > 50 | 4.23 | > 50 | 34 | 97 | 90 | 7.1 | 89 |  |  | 
CCOC(=O)c1cnc2ccc(CC)cc2c1O [MMV007116] | -3.48 | -3.29 | > 10 |  | > 20 | 17 | 102 | 101 | 0.0491 |  |  | 10 | 110
Oc1c2c(nc3ccccc13)CCCC2 [MMV665843] | -7.59 |  | > 50 | 8 | > 50 | 18 | 98 | 100 | 0.894 | 101 |  |  | 
N#Cc1nc(Cc2cccc3ccccc23)oc1N1CCN(C(c2ccccc2)c2ccccc2)CC1 [MMV396726] | -11 |  | > 50 | -1 | > 50 | 23 | 97 | 92 | 2.68 | 100 |  |  | 
CCCc1c(C)nc2ccc(Br)cc2c1O [MMV666095] | -21 |  | > 50 | -6 | > 50 | 25 | 102 | 103 | 0.794 | 106 |  |  | 
Oc1c2c(nc3cc(-c4ccccc4)nn13)CCCC2 [MMV008270] | -14 | -22 | > 10 |  | 0.577 | 92 | 103 | 104 | 0.147 |  |  | 8 | 106
COc1ccc2c(c1OC)C(=O)N1c3ccccc3N=C(c3ccc(C)cc3)CC21 (stereo not drawn) [MMV000917] | 15 |  | > 50 | 7 | > 50 | 23 | 96 | 95 |  | 96 | > 50 |  | 
Cc1ccc(-c2cc3nc4c(c(O)n3n2)CCCC4)cc1 [MMV006937] | -11 | -9 | > 10 |  | 1.79 | 92 | 103 | 102 | 0.114 |  |  | 6.62 | 110
N=c1c2ccccc2nnn1-c1cccc(C(F)(F)F)c1 [MMV665923] | -7.5 |  | > 50 | 26 | > 50 | 26 | 99 | 99 | 0.789 | 104 |  |  | 
Cc1sc(NC(=O)c2ccccc2)c(C(c2cccs2)N2CCN(c3ccccc3)CC2)c1C (stereo not drawn) [MMV396652] | 14 |  | > 50 | 28 | > 50 | 33 | 99 | 99 | 4.07 | 97 |  |  | 
O=C(NCc1ccco1)C1CCN(S(=O)(=O)c2ccc(Cl)cc2)CC1 [MMV006188] | 22 | 28 | > 50 | 28 | > 50 | 22 | 102 | 102 | 0.707 | 106 |  |  | 
CCN1CCN(c2c(C(=O)c3ccccc3)cnc3cc(OC)c(OC)cc23)CC1 [MMV008474] | 7 |  | > 50 | 7 | > 50 | 22 | 102 | 103 | 1.01 | 106 |  |  | 
CCOc1cc2c(cc1OCC)C(c1cc(OC)c(O)cc1Cl)NCC2 (stereo not drawn) [MMV008956] | -6.54 | -15 | > 10 |  | > 20 | 24 | 101 | 100 |  |  | > 10 | 9 | 22
COc1ccc(-c2cc3c(SCC(=O)Nc4cc(C(F)(F)F)ccc4Cl)nccn3n2)cc1 [MMV396679] | 7 | 18 | > 50 | 14 | > 50 | 10 | 102 | 103 | 2.18 | 105 |  |  | 
CC(C)(C)c1ccc(C(=O)Nc2c3c(nn2-c2cccc(Cl)c2)CSC3)cc1 [MMV666123] | 18 |  | > 50 | 10 | > 50 | 23 | 101 | 102 | 10.1 | 103 |  |  | 
O=C(Nc1ccc(-c2nc3ccccc3[nH]2)cc1)c1ccc(Cl)c(Cl)c1 [MMV665840] | -7 |  | > 10 |  | > 20 | 22 | -57 | -66 |  |  | > 10 | 31 | 15
CCOc1ccccc1CN1CCc2nc3cc(C(C)(C)C)nn3c(O)c2C1 [MMV396595] | 0.78 |  | > 50 | 8 | > 50 | 50 | 99 | 100 | 0.569 | 106 |  |  | 
